Source: US9593148B2, “DPP8 and DPP9 peptide inhibitors” (GEORG-AUGUST-UNIVERSITAT GOTTINGEN STIFTUNG OFFENTLICHEN …, priority 2012, dated 2017)
Where two headings read alike, the source gives them in different places. No end group written: not given here.

Assays:
[1] = target: T1, DPP9 (Homo sapiens, UniProt Q86TI2); experiment: Inhibition of GP-AMC hydrolysis by purified recombinant DPP9 at a single peptide concentration; assay type: biochemical; settings: 25 nM DPP9, 0.2 mM GP-AMC
T1 construct: made in house; host or cells: Sf9 insect cells (baculovirus)
T1 sequence (Q86TI2 1-892 isoform Q86TI2-2): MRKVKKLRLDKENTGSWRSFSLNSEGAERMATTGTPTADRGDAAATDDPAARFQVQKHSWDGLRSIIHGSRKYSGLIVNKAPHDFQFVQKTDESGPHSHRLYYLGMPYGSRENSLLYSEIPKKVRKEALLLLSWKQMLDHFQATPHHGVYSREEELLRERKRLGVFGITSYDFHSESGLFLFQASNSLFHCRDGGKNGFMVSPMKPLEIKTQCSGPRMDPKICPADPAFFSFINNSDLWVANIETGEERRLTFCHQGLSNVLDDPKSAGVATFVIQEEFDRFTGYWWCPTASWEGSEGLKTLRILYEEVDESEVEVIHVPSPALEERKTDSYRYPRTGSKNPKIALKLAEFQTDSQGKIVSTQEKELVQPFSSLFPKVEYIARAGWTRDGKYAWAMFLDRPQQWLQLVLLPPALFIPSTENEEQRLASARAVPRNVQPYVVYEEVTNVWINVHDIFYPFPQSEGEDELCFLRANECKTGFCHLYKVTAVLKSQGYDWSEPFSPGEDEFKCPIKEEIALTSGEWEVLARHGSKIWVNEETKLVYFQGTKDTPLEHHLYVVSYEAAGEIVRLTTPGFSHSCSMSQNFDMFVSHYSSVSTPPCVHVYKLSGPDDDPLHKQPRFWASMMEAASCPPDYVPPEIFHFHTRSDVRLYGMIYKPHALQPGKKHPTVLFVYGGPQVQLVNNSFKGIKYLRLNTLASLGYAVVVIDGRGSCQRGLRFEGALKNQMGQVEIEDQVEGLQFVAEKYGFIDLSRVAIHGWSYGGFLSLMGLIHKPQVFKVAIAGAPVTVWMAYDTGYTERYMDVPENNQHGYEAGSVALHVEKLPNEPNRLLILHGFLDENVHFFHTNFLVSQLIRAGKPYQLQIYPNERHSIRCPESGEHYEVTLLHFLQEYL
Procedure: Accordingly, the peptide is capable of inhibiting the activity of wild-type DPP9 (SEQ ID NO: 6) to a level of 35 to 5% of the activity of wild-type DPP9 (SEQ ID NO: 6) if not inhibited, as determined in an assay using 25 nM purified DPP9, 0.2 mM GP-AMC, and 14 μM of the peptide to be tested, in TB buffer (20 mM Hepes/KOH pH 7.3, 110 mM potassium acetate, 2 mM Mg acetate, 0.5 mM EGTA), supplemented with 0.2% Tween-20, 1 mM dithiothreitol. Release of AMC from GP-AMC is measured using the Appliskan microplate fluorimeter (Thermo Scientific) with 380 nm (excitation) and 480 nm (emission) filters and the Skanit software, and analysed using the Prism software.
(§1) Kinetics assays: Purified recombinant DPP9 (25 nM) was incubated with varying concentrations of GP-AMC, in TB supplemented with 0.2% Tween-20, 1 mM ditiothreitol. For inhibition assays, inhibitory peptides were added directly to the reaction mixture. For activation by SUMO 0.2 mg/ml BSA, was added to the buffer to prevent non specific binding. DPP9 were incubated with 2.5 μM of either SUMO1, SUMO1 E67A, SUMO2 for 2 hour on ice prior to the assay. Alternatively DPP9 was incubated with 1 μM of RanGAP or RanGAP modified with either SUMO1 or SUMO2 for 2 hours prior to the assay. Fluorescence was measured using the Appliskan microplate fluorimeter (Thermo Scientific) with 380 nm (excitation) and 480 nm (emission) filters and the Skanit software, and analysed using the Prism software. Each experiment was performed at least three times, in replicates of four.
To improve the inhibition of DPP9, the inventors tested several peptide libraries composed of truncated variants of the EIL peptide (>80% pure, ordered from Genescript). These peptides were incubated with recombinant DPP9 and analysed GP-AMC hydrolysis. AMC release was then compared to samples containing either DPP9 alone, or the EIL peptide.

[2] = tested on: cytosolic prolyl peptidase activity (HeLa cytosolic fractions); experiment: GP-AMC hydrolysis in HeLa cytosolic fractions incubated with peptide; assay type: biochemical, human
Procedure: HeLa cytosolic fractions were incubated with 0, 27.7 or 55.6 μM peptide EIL, and immediately tested for hydrolysis of varying concentrations of A. GP-AMC or B. R-AMC. Fluorescence was measured using the Appliskan microplate fluorimeter (Thermo Scientific) with 380 nm (excitation) and 480 nm (emission) filters and the Skanit software, and analysed using the Prism software. Each experiment was performed at least three times, in replicates of four.
Since the EIL peptide can displace SUMO1 from a DPP9-SUMO1 or a DPP8-SUMO1 complex (FIG. 2D), the inventors tested whether the EIL peptide would inhibit the association-dependent activation of DPP8 and DPP9 by SUMO1 in cell extracts. For this the inventors incubated cytosolic extracts with the EIL peptide and tested for the hydrolysis of GP-AMC (FIG. 8A). […] For control, the inventors also measured the hydrolysis of R-AMC, which is not a substrate for DPP8 or DPP9 (FIG. 8B).

[3] = target: T2, DPP8 (Homo sapiens, UniProt Q6V1X1); experiment: Kinetics assay, Ki for inhibition of DPP8 (GP-AMC hydrolysis); assay type: biochemical
T2 construct: made in house; host or cells: Sf9 insect cells (baculovirus)
T2 sequence (Q6V1X1 whole entry): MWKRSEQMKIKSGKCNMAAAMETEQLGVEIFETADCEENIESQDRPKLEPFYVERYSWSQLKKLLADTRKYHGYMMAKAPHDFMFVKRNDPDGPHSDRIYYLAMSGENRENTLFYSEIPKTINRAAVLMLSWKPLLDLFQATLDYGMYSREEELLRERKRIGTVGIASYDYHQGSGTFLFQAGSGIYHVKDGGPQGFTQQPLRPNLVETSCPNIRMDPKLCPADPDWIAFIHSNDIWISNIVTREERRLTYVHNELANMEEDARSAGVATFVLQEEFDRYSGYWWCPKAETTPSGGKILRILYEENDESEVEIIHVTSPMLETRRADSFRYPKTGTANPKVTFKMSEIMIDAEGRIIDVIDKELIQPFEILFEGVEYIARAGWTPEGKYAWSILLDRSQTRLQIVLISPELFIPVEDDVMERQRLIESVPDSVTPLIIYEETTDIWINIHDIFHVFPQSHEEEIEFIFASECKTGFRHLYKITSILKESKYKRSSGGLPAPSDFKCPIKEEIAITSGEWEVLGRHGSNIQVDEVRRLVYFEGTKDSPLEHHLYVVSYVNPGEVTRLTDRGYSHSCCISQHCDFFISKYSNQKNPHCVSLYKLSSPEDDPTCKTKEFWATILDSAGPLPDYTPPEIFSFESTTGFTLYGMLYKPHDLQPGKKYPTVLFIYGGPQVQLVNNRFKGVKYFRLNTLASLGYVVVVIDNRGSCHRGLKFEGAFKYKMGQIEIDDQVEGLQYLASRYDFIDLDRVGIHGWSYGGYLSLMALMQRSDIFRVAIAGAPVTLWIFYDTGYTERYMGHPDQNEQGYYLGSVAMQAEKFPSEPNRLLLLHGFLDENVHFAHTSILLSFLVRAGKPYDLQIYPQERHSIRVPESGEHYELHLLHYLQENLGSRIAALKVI
Procedure: (§2) Enzyme kinetics and the Ki of DPP8 or DPP9 may be determined as follows: 25 nM purified recombinant enzyme (DPP9 or DPP8) are incubated with varying concentrations of GP-AMC ([…] GP-AMC), in TB buffer (20 mM Hepes/KOH pH 7.3, 110 mM potassium acetate, 2 mM Mg acetate, 0.5 mM EGTA), supplemented with 0.2% Tween-20, 1 mM dithiothreitol. Experiments are performed in triplicates. To measure Ki values, for each set of experiments, inhibitory peptides are added to DPP9 or DPP8. Peptide concentrations tested are in the range between 0.04 to 50 μM. Release of AMC from GP-AMC is measured using the Appliskan microplate fluorimeter (Thermo Scientific) with 380 nm (excitation) and 480 nm (emission) filters and the Skanit software, and analysed using the Prism software.
(§3) A&B 25 nM purified recombinant (A) DPP9 or (B) DPP8 were incubated with varying concentrations of the EIL peptide (0, 3.3 μM and 6.6 μM) and tested for hydrolysis of GP-AMC (1000, 500, 250, 125, 0 μM). C. 25 nM DPPIV was tested for the hydrolysis of GP-AMC (500, 250, 125, 0 μM) in the presence of 0 or 13 μM EIL peptide. Fluorescence was measured using the Appliskan microplate fluorimeter (Thermo Scientific) with 380 nm (excitation) and 480 nm (emission) filters and the Skanit software, and analysed using the Prism software. Each experiment was performed at least three times, in replicates of four.

[4] = target: T1, DPP9; experiment: Kinetics assay, Ki for inhibition of DPP9 (GP-AMC hydrolysis); assay type: biochemical
Procedure: as §2, §3, §1

[5] = target: DPPIV (Homo sapiens, UniProt P27487); experiment: GP-AMC hydrolysis by DPPIV in the presence of peptide; assay type: biochemical; settings: 25 nM DPPIV, 13 μM peptide
Sequence of DPPIV (P27487 whole entry): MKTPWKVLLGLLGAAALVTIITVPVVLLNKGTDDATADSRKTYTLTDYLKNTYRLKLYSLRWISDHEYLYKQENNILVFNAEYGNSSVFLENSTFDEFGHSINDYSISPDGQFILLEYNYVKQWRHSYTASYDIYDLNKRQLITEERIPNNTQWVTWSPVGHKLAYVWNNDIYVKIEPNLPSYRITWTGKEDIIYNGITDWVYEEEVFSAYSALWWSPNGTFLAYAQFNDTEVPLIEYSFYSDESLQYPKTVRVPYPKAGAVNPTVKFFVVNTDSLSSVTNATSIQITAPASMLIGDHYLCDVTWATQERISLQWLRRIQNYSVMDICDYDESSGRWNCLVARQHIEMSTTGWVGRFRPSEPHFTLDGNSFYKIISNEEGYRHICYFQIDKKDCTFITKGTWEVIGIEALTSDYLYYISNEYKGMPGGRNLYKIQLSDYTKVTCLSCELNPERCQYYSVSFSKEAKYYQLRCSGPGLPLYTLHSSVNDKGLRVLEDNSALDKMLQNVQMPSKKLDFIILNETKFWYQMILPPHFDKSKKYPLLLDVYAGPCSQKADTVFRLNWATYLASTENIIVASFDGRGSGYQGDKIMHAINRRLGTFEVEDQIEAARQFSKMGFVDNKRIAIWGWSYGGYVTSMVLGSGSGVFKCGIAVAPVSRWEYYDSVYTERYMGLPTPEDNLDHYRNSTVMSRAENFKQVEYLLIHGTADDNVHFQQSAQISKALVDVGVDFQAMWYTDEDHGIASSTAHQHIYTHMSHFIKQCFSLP
Procedure: Preferably, the peptide is capable of inhibiting the activity by wild-type DPP9 (SEQ ID NO: 6) to a level of 30 to 5%, 29 to 5%, 28 to 5%, 27 to 5%, 26 to 5%, 25 to 5%, 24 to 5%, 23 to 5%, 22 to 5%, 21 to 5%, 20 to 5%, 19 to 5%, 18 to 5%, 17 to 5%, 16 to 5%, 15 to 5%, 14 to 5%, 13 to 5%, 12 to 5%, 11 to 5%, 10 to 5%, 9 to 5%, 8 to 5%, such as 7.5 to 5% of the activity of wild-type DPP9 (SEQ ID NO: 6) if not inhibited. […] Release of AMC from GP-AMC is measured using the Appliskan microplate fluorimeter (Thermo Scientific) with 380 nm (excitation) and 480 nm (emission) filters and the Skanit software, and analysed using the Prism software.
as §3

[6] = target: T3, DPP9-SUMO1 interaction (Homo sapiens, UniProt Q86TI2); experiment: Peptide competition of DPP9 binding to SUMO1-immobilized beads (pull down); settings: 500 ng recombinant DPP9, peptide 0.1 mg/ml
T3 construct: made in house; host or cells: DPP9: Sf9 insect cells
T3 sequence (Q86TI2 1-892 isoform Q86TI2-2): as the sequence (Q86TI2 1-892 isoform Q86TI2-2) above
Procedure: Ovalbumin (Ov) coupled beads were used for control. Bound proteins were detected by western blotting using specific antibodies. B. Shown is a pull down assay as in A with recombinant DPP9, DPP8, Uba2 or GST-PIAS3. C. Recombinant DPP9 was incubated with 15 mer peptides of a peptide library covering SUMO1 amino acid sequence. The DPP9-peptide solutions were then incubated with SUMO1-immobilized beads. Following extensive washing steps, bound DPP9 was eluted with sample buffer and detected DPP9-specific antibodies. D. Recombinant DPP8 and DPP9 were incubated with SUMO1-immobilized beads. To elute bound proteins, beads were incubated with either SUMO1-peptide 5 (overlapping SIG) or with SUMO1-peptide 9. […] Interacting DPP9 was detected using a DPP9 specific antibody. […] Interacting proteins were eluted with sample buffer and detected using specific antibodies. […]
To study the preferential association of DPP8 and DPP9 with SUMO1 but not SUMO2, the inventors aimed to identify the surfaces on SUMO1 involved in these interactions. First the inventors analysed the interaction of DPP9 with SUMO1 mutants in residues which were previously shown via NMR and crystal structures to interact with SIM containing proteins (Song et al, 2004; Hecker et al, 2006; Reverter & Lima, 2005). […] SUMO1-peptides 5 or 9 were then added and the release of bound DPP8 or DPP9 from the SUMO beads was analysed by SDS-PAGE (FIG. 2D). […]

[7] = 14 μM peptide, no peptide = 100
[8] = 10 μM peptide, DPP9 alone = 100.3
[9] = 25 nM DPP9, 0, 5 or 20 μM peptide, GP-AMC 0-500 μM, read-out: Ki (μM) for inhibition of DPP9

| Substance | % DPP9 activity (Mean) [1, 7] [%] | % DPP9 activity (Mean) [1, 8] [%] | also measured |
| --- | --- | --- | --- |
| SLRFLFEGQR (EIL peptide variant) | 24.27 | – | – |
| FEGQRIADNH (SLRFLFEGQRIAD; EIL peptide variant) | 97.12 | – | – |
| RRRRSLRFLFEG (RRRRSLRFLYAG; EIL variant peptide) | – | 92.2 | – |
| SLRFLFEGQ (LRFLFEGQRIADN; EIL peptide variant) | 16.43 | – | – |
| SLRFLFEGQRIADNH | – | – | stability of the peptide in cytosolic extracts ([2]; HeLa cytosolic extracts): stable in cytosolic extracts; Ki [3]: 8.4 µM; Ki [4, 9]: 7.32 µM; Ki ([4]; read-out: Ki for DPP9): 7.4 µM |
| SLRFLFEAQRIADNH (LRFLFEGQRIADNH; EIL peptide variant) | 19.46 | – | – |
| H-SLRFLFEGQRIADNH | 27.45 | – | degradation of GP-AMC in cytosolic extracts ([2]; HeLa cytosolic fractions, 0, 27.7 or 55.6 μM peptide): strongly reduced; inhibition of DPPIV [5]: not inhibited; binding of DPP9 to the SUMO1 beads after pre-incubation with peptide [6]: strongly reduced |
| TLRFLFEG (SLRFLFEG; EIL variant peptide) | – | 29.2 | – |
| H-SLRFLFEG | – | 24.08 | Ki [4, 9]: 2 µM |
| H-SLRFLFAGQRIADNH | 5.093 | – | Ki [4, 9]: 1.43 µM |
| LFEGQRIADNH (EIL peptide variant) | 67.77 | – | – |
| AAASLRFLYEG (SLRFLYEGAAA; EIL variant peptide) | – | 91.15 | – |
| Acet-SLRFLFEG | – | 90.74 | – |
| LFEGQR (FLIEGQRI; EIL peptide variant) | 51 | – | – |
| H-SLRFLYEGQRIADNH | 13.06 | – | Ki [4, 9]: 2.56 µM |
| FLFEGQRI (EIL peptide variant) | 48.41 | – | – |
